Results reported in paper PMC8292411 (British Journal of Cancer, 2021).
Entries after “also recorded” stand apart in the source; their conditions may differ. Where a name gives a salt, the structure may show the parent alone. Read-outs that look alike come from different tables or passages of the source.

Columns and labels:
HCC with MET alterations = tested on: HCC with MET alterations; set-up: method as in PMID 31853265; conditions: 30 patients with HCC with MET alterations, first-line; cited from earlier work
MET = tested on: MET; set-up: method as in PMID 28862760; conditions: cited from earlier work
advanced HCC [1] = test: Phase 1b tumour response per RECIST v1.1; assay type: in vivo, human; conditions: for duration of partial response: one patient
Protocol: (§1) In Phase 2, the primary endpoint was independent review committee (IRC)-assessed time to progression (TTP) per Response Evaluation Criteria in Solid Tumors (RECIST) v1.1. Secondary endpoints included investigator-assessed TTP, IRC- and investigator-assessed progression-free survival (PFS), objective response rate (ORR), disease control rate, OS and safety. In both phases, tumour assessments were performed according to RECIST v1.1 based on scans taken at the end of every second cycle until Cycle 13, and every four cycles thereafter.

[2] = Phase 1b pharmacokinetics, Cycle 1 Day 15; assay type: in vivo, human; conditions: for AUC / Cmax: human, in vivo, oral, Cycle 1 Day 15, geometric mean
Protocol: Secondary endpoints in Phase 1b included efficacy measures and pharmacokinetic parameters, such as Cmax and area under the concentration–time curve over the dosing interval at steady state (AUCτ,ss), which were evaluated at Cycle 1, Day 15.

[3] = tested on: Asian patients with advanced HCC; test: Phase 1b dose escalation: DLTs and adverse events
Protocol: This was an open-label, multicentre, integrated, Phase 1b/2 trial conducted in Asian patients with advanced HCC (NCT01988493). […] Phase 1b was conducted at eight sites and Phase 2 at 43 sites in mainland China, South Korea and Taiwan.
Once three patients had completed one cycle at 500 mg, nine further patients were to be enrolled at this dose level to confirm the RP2D. […] The Safety Monitoring Committee (SMC) could also recommend enrolment of additional patients at or above the RP2D.
In Phase 1b, the primary endpoint was the incidence of investigator-assessed DLTs occurring in Cycle 1, as well as the incidence of other AEs (graded according to the National Cancer Institute Common Terminology and Criteria for Adverse Events, v4.0). […] Secondary endpoints in Phase 1b included efficacy measures and pharmacokinetic parameters, such as Cmax and area under the concentration–time curve over the dosing interval at steady state (AUCτ,ss), which were evaluated at Cycle 1, Day 15.

[4] = patients with moderate hepatic impairment (Child–Pugh B); cited from earlier work
[5] = tested on: advanced HCC with MET overexpression; test: Phase 2 randomised efficacy, tepotinib vs sorafenib (TTP, PFS, OS, response; RECIST v1.1); assay type: in vivo, human; conditions: Phase 2, mITT
From the text: (§2) Patients in both phases continued to receive allocated therapy until disease progression, intolerable toxicity or withdrawal of consent.
as §1
(§3) In Phase 2, analyses were conducted according to randomised treatment assignment. […] In total, 100 TTP events were required to ensure 80% power (with a two-sided significance level of 10%) for rejecting the null hypothesis of equal treatment effect between treatment arms, assuming a true hazard ratio (HR) of 0.6. […] For the primary and secondary time-to-event endpoints, treatment groups were compared in the mITT population, applying a two-sided log-rank test, stratified by BCLC stage (α = 10%).

advanced HCC [6] = conditions: Phase 3 SHARP sorafenib trial; cited from earlier work
advanced HCC [7] = conditions: Phase 3 Asia-Pacific sorafenib trial; cited from earlier work
[8] = tested on: SACT-naive Asian patients with aHCC with MET overexpression; test: Phase 2 safety (adverse events, NCI-CTCAE v4.0); conditions: for treatment-related AEs: ALT increased / treatment-related AEs: AST increased / treatment-related AEs: Alopecia / treatment-related AEs: Blood bilirubin increased / treatment-related AEs: Blood creatinine increased / treatment-related AEs: Diarrhoea / treatment-related AEs: Fatigue / treatment-related AEs: Hypertension / treatment-related AEs: Hypoalbuminaemia / treatment-related AEs: Oedema peripheral / treatment-related AEs: Overall / treatment-related AEs: PPES: Phase 2, safety analysis set
Protocol: as §2
DLTs are defined in Supplementary Table 3.
as §3

[9] = Phase 1b, 500 mg dose, comparator ref 13
[10] = Phase 1b, across all dose cohorts

SMILES: CNC(=O)c1ccc(-c2cnc3ncc(Cc4ccc5ncccc5c4)n3n2)cc1F [capmatinib]
- ORR (HCC with MET alterations): 10%

SMILES: COc1cc2nccc(Oc3ccc(NC(=O)C4(C(=O)Nc5ccc(F)cc5)CC4)cc3)c2cc1OC [cabozantinib]
- in vitro IC50 for MET inhibition (MET): low nanomolar range

SMILES: CN1CCC(COc2cnc(-c3cccc(Cn4nc(-c5cccc(C#N)c5)ccc4=O)c3)nc2)CC1 [Tepotinib, tepotinib hydrochloride hydrate]
- best overall response of progressive disease (advanced HCC [1]; Phase 1b, 300 mg cohort): 85.7%
- best overall response of stable disease (advanced HCC [1]; Phase 1b, 300 mg cohort): 14.3%
- disease control rate (advanced HCC [1]; Phase 1b, 300 mg cohort): 14.3%
- best overall response of progressive disease (advanced HCC [1]; Phase 1b, 500 mg cohort): 35.7%
- best overall response of stable disease (advanced HCC [1]; Phase 1b, 500 mg cohort): 42.9%
- objective response rate (ORR) (advanced HCC [1]; Phase 1b, 500 mg cohort): 7.1%
- duration of partial response (advanced HCC [1]; Phase 1b, 500 mg cohort): 19 months
- best overall response of progressive disease (advanced HCC [1]; Phase 1b, 1,000 mg cohort): 50.0%
- best overall response of stable disease (advanced HCC [1]; Phase 1b, 1,000 mg cohort): 33.3%
- objective response rate (ORR) (advanced HCC [1]; Phase 1b, 1,000 mg cohort): 16.7%
- duration of partial response (advanced HCC [1]; Phase 1b, 1,000 mg cohort): 4.4 months
- AUCτ as percentage of that observed in the first-in-human trial [2, 9]: 61%
- Cmax as percentage of that observed in the first-in-human trial [2, 9]: 63%
- AUC ([2]; 1000 mg, Phase 1b, 1,000 mg QD): 28600 ng·h/mL
- Cmax ([2]; 1000 mg, Phase 1b, 1,000 mg QD): 1370 ng/mL
- AUC ([2]; Phase 1b, 300 mg QD): 11800 ng·h/mL
- Cmax ([2]; Phase 1b, 300 mg QD): 585 ng/mL
- AUC ([2]; Phase 1b, 500 mg QD): 16700 ng·h/mL
- Cmax ([2]; Phase 1b, 500 mg QD): 815 ng/mL
- dose-limiting toxicities (DLTs) ([3]; Phase 1b, 300, 500 or 1,000 mg QD, Cycle 1): no DLTs occurred; also recorded: No DLTs were observed; also recorded: no DLTs were reported
- treatment-related AEs, Grade ≥3 [3, 10]: 33.3%
- treatment-related AEs, any grade [3, 10]: 81.5%
- patients with AEs of any cause ([3]; Phase 1b, n = 27): All patients
- lower AUC from time 0 to infinity versus control subjects without hepatic impairment [4]: 12%
- lower Cmax versus control subjects without hepatic impairment [4]: 29%

SMILES: O=C1NC(=O)[C@@H](c2cn3c4c(cccc24)CCC3)[C@@H]1c1c[nH]c2ccccc12 [tivantinib]
- affinity for the MET receptor (MET; relative to tepotinib, cabozantinib and capmatinib): lower affinity for the receptor

SMILES: CNC(=O)c1cc(Oc2ccc(NC(=O)Nc3ccc(Cl)c(C(F)(F)F)c3)cc2)ccn1 [Sorafenib, sorafenib]
- ORR by IRC [5]: 0%
- median OS [5]: 8.6 months
- median PFS assessed by IRC [5]: 1.4 months
- median investigator-assessed PFS [5]: 2.8 months
- median investigator-assessed TTP [5]: 2.8 months
- Best overall response: Complete response ([5]; IRC): 0 (0.0)
- Best overall response: Non-complete response/non-partial response ([5]; IRC): 0 (0.0)
- Best overall response: Partial response ([5]; IRC): 0 (0.0)
- Best overall response: Progressive disease ([5]; IRC): 25 (67.6)
- Best overall response: Stable disease ([5]; IRC): 8 (21.6)
- Objective response rate ([5]; IRC): 0 (0.0) n (%)
- disease control ([5]; IRC): 21.6%
- disease control rate ([5]; IRC): 8 (21.6) n (%)
- median IRC-assessed time to progression (TTP) ([5]; tepotinib 500 mg QD, sorafenib 400 mg twice daily): 1.4 months
- median TTP (advanced HCC [6]): 5.5 months
- median TTP (advanced HCC [7]): 2.8 months
- aspartate transaminase increase, any cause ([8]; Phase 2): 36.4%
- deaths deemed treatment-related ([8]; Phase 2): neither were deemed treatment-related
- decreased appetite, any cause ([8]; Phase 2): 40.9%
- diarrhoea, any cause ([8]; Phase 2): 38.6%
- palmar–plantar erythrodysesthesia, any cause ([8]; Phase 2): 61.4%
- patients who died due to AEs while on treatment ([8]; Phase 2): Two
- patients with AEs of any cause ([8]; Phase 2): 97.7%
- patients with Grade ≥3 AEs of any cause ([8]; Phase 2): 70.5%
- permanent treatment discontinuation due to AEs of any cause ([8]; Phase 2): 13.6%
- treatment-related diarrhoea ([8]; Phase 2, any grade): 31.8%
- treatment-related palmar–plantar erythrodysesthesia ([8]; Phase 2, any grade): 61.4%
- treatment-related AEs: ALT increased ([8]; Any grade): 7 (15.9) n (%)
- treatment-related AEs: AST increased ([8]; Any grade): 10 (22.7) n (%)
- treatment-related AEs: Alopecia ([8]; Any grade): 10 (22.7) n (%)
- treatment-related AEs: Blood bilirubin increased ([8]; Any grade): 8 (18.2) n (%)
- treatment-related AEs: Blood creatinine increased ([8]; Any grade): 0 (0.0) n (%)
- treatment-related AEs: Diarrhoea ([8]; Any grade): 14 (31.8) n (%)
- treatment-related AEs: Fatigue ([8]; Any grade): 11 (25.0) n (%)
- treatment-related AEs: Hypertension ([8]; Any grade): 11 (25.0) n (%)
- treatment-related AEs: Hypoalbuminaemia ([8]; Any grade): 2 (4.5) n (%)
- treatment-related AEs: Oedema peripheral ([8]; Any grade): 0 (0.0) n (%)
- treatment-related AEs: Overall ([8]; Any grade): 43 (97.7) n (%)
- treatment-related AEs: PPES ([8]; Any grade): 27 (61.4) n (%)
- treatment-related AEs: ALT increased ([8]; Grade ≥ 3): 0 (0.0) n (%)
- treatment-related AEs: AST increased ([8]; Grade ≥ 3): 3 (6.8) n (%)
- treatment-related AEs: Alopecia ([8]; Grade ≥ 3): 0 (0.0) n (%)
- treatment-related AEs: Blood bilirubin increased ([8]; Grade ≥ 3): 2 (4.5) n (%)
- treatment-related AEs: Blood creatinine increased ([8]; Grade ≥ 3): 0 (0.0) n (%)
- treatment-related AEs: Diarrhoea ([8]; Grade ≥ 3): 3 (6.8) n (%)
- treatment-related AEs: Fatigue ([8]; Grade ≥ 3): 0 (0.0) n (%)
- treatment-related AEs: Hypertension ([8]; Grade ≥ 3): 6 (13.6) n (%)
- treatment-related AEs: Hypoalbuminaemia ([8]; Grade ≥ 3): 0 (0.0) n (%)
- treatment-related AEs: Oedema peripheral ([8]; Grade ≥ 3): 0 (0.0) n (%)
- treatment-related AEs: Overall ([8]; Grade ≥ 3): 20 (45.5) n (%)
- treatment-related AEs: PPES ([8]; Grade ≥ 3): 3 (6.8) n (%)
- treatment-related AEs, Grade ≥3, overall ([8]; Phase 2, text): 45.5%
- treatment-related AEs, any grade, overall ([8]; Phase 2, text): 97.7%
